Results as given in patent US8058258B2, “Methods for cancer therapy and stem cell modulation” (Agency for Science, Technology and Research, priority 2006, dated 2011).

What was measured:
DNMT1 or DNMT3B = test: Western blot of DNMT protein expression; assay type: cell-based, human; conditions: HCT116 or MCF-7 cells, 5 μM, 48 and 72 hours
Method: Cell lines used in these examples were purchased from the American Type Culture Collection (Manassas, Va.). Cells were maintained in DMEM supplemented with 10% fetal bovine serum with glutamine, penicillin, and streptomycin. For drug treatment, cells were seeded the day before the drug treatment. Cells were treated with 5 μM 3-Deazaneplanocin A or 2 μM 5-aza-2'-deoxycytidine (5-AzaC; Sigma) for 72 hours and trichostatin A (TSA; Sigma) at 100 nM for 24 hours. For co-treatment of cells with 5-AzaC and TSA, 5-Aza was added for 48 hours and followed by TSA for 24 hours. Cell pellets were first lysed in RadioImmuno Precipitation Assay (RIPA) buffer, consisting of an aqueous solution of 25 mM Tris-HCl pH 7.6, 150 mM NaCl, 1% Nonidet-P 40 (NP-40), 1% sodium deoxycholate and 0.1% sodium dodecylsulfate (SDS), before further sonicated using a tissue homogeniser to release all the proteins. Equal amounts of protein were separated on SDS-polyacrylamide gels and transferred to polyvinylidene difluoride (PVDF) membranes. The blots were probed with antibodies against: EED (07-368), SUZ12 (07-379), SUV39H1 (07-550), BMI1 (05-637), tri-methylated H3-K27 (07-449), tri-methylated H3-K9 (07-442) and Acetyl-Histone H3 (06-599), and were purchased from Upstate. EZH2 (AC22) and Histone H3 (3H1) were from Cell Signaling. […]

MCF-7 and HCT116 cells = test: Mitochondrial membrane potential by JC-1 staining and flow cytometry; assay type: cell-based; conditions: JC-1, flow cytometry
Source text: FIG. 3B depicts the detection of mitochondrial membrane potential of HCT116 cells by staining with the dye 5,5′,6,6′-tetrachloro-1,1′,3,3′-tetraethyl-benzamidazolocarbocyanin iodide (JC-1).
FIG. 3C compares the apoptosis in HCT116 cells (right hand side, data of FIG. 3B) to the apoptosis in MCF-7 cells (left hand side).
(§1) Cells were trypsinised and washed with PBS and fixed in 70% ethanol and processed for propidium iodide staining and FACS analysis. For the caspase 3 activity assay and mitochondrial membrane potential detection, cells were stained with anti-active caspase 3 and JC-1, respectively, according to the manufacturer's instructions (BD Bioscience).
To elucidate the mechanisms by which 3-deazaneplanocin induces cell death, flow cytometry was used to analyse the loss of mitochondrial membrane potential (ΔΨm) in MCF-7 and HCT116 cells after 3-deazaneplanocin treatment (FIGS. 3B & 3C).

MB-468 cells = test: Cell death / apoptosis by PI staining and flow cytometry; assay type: cell-based, human
Method: (§2) FIG. 3A depicts the detection of cell death of a variety of cancer cells upon exposure to 3-deazaneplanocin (DZNep) compared to untreated controls cells (DMSO=dimethyl sulfoxide). Breast cancer MCF-7 and MB-468 cells, colorectal HCT116, RKO and SW480 cells were treated with 5 μm 3-deazaneplanocin for 48 and 72 h, and cell death was detected by means of propodium iodide (PI) staining and flow cytometry analysis. Shown is the average of three independent experiments.
FIG. 6A depicts an analysis of the breast cancer cell lines MCF-7, MB-468, SK-BR-3, MB-231, T47D and BT549 for an apoptotic effect of 5 μM 3-deazaneplanocin over a time frame of 120 hours. Cell death was measured by FACS analysis. Data presented are the average of three independent experiments.
Cell lines used in these examples were purchased from the American Type Culture Collection (Manassas, Va.). Cells were maintained in DMEM supplemented with 10% fetal bovine serum with glutamine, penicillin, and streptomycin. For drug treatment, cells were seeded the day before the drug treatment. […]
It was observed that 3-deazaneplanocin at 5 μM could induce 25% cell death at 48 hours and 45% of cell death at 72 hours, as determined by propodium iodide (PI) staining and flow cytometry analysis (FIG. 3A). […]

MCF-7 cells = test: as above; assay type: cell-based, human; conditions: 5 μM; for cell death: PI staining and flow cytometry, cell line not named in the sentence (FIG. 3A)
Method: as §2
Cell lines used in these examples were purchased from the American Type Culture Collection (Manassas, Va.). Cells were maintained in DMEM supplemented with 10% fetal bovine serum with glutamine, penicillin, and streptomycin. For drug treatment, cells were seeded the day before the drug treatment. Cells were treated with 5 μM 3-Deazaneplanocin A or 2 μM 5-aza-2′-deoxycytidine (5-AzaC; Sigma) for 72 hours and trichostatin A (TSA; Sigma) at 100 nM for 24 hours. For co-treatment of cells with 5-AzaC and TSA, 5-Aza was added for 48 hours and followed by TSA for 24 hours.
as §1
It was observed that 3-deazaneplanocin at 5 μM could induce 25% cell death at 48 hours and 45% of cell death at 72 hours, as determined by propodium iodide (PI) staining and flow cytometry analysis (FIG. 3A).
To determine whether 3-deazaneplanocin preferentially induces apoptosis in cancer cells, the apoptosis induction between MCF-7 cells and the non-cancerous breast epithelial MCF10A cells was compared for various periods of time. […] In addition, normal primary colon epithelial CC33D cells, like MCF10A cells, were also resistant to 3-deazaneplanocin treatment compared to colorectal cancer HCT116 cell, as evaluated by microscopy examination (FIGS. 3G & 3H).

Nc1nccc2c1ncn2C1C=C(CO)C(O)C1O (stereo not shown) [3-deazaneplanocin, 5-(4-amino-1H-imidazo[4,5-c]pyridin-1-yl)-3-(hydroxymethyl)-3-cyclopentene-1,2-diol]
DNMT1 or DNMT3B protein expression (DNMT1 or DNMT3B): did not cause a change
loss of mitochondrial membrane potential (ΔΨm) (MCF-7 and HCT116 cells): marked increase in the percentage of cells with lower ΔΨm
sensitivity to 3-deazaneplanocin-induced cell death (MB-468 cells; MB-468, 5 μM, time course to 120 hours): highly susceptible
cell death (MB-468 cells; breast cancer MB-468 cells, 5 μM): obvious cell death
cell death (MCF-7 cells; 48 hours): 25%
cell death (MCF-7 cells; 72 hours): 45%
apoptosis induction over various periods of time (MCF-7 cells; MCF-7 cells, FACS): progressive and marked apoptosis
